Test results as given in patent US12162893B2 (Erasca, Inc., priority 2020, dated 2024).

Molecular target: T1, mutant G12C K-RAS (Homo sapiens, UniProt P01116, G12C)
T1 construct: made in house; host or cells: E. coli BL21
Test: covalent adduct formation (CAF) with mutant G12C K-RAS
Type: binding
Parameters: CAF: unit not given here
Settings: Table 1, Pyrimidone Core-Morpholine Unsubstituted; after 60 minutes at 10 micromolar
Description: Embodiments disclosed herein are further illustrated by the following examples in Tables 1-4 and the Examples hereinbelow. The Tables indicate the compound number, structure, the observed mass spectral molecular weight peak, and covalent adduct formation (CAF) with a mutant G12C K-RAS after 60 minutes at a concentration of 10 micromolar.

| % CAF (60 min) [%] | SMILES |
| --- | --- |
| 0 | C=CC(=O)N1C[C@H](C)N(c2nc(=O)n3c4c(c(-c5ccc(F)c(Cl)c5)ccc24)OCC3)C[C@H]1C [Example 12, 7-((2S,5R)-4-acryloyl-2,5-dimethylpiperazin-1-yl)-10-(3-chloro-4-fluorophenyl)-2H-[1,4]oxazino[2,3,4-ij]quinazolin-5(3H)-one] |
| 72.6 | C=CC(=O)N1CCN(c2nc(=O)n3c4c(c(-c5c(C)ccc6[nH]nc(C)c56)c(Cl)cc24)OCC3)CC1 [Example 9, 7-(4-acryloylpiperazin-1-yl)-9-chloro-10-(3,5-dimethyl-1H-indazol-4-yl)-2H-[1,4]oxazino[2,3,4-ij]quinazolin-5(3H)-one] |

Same assay, conditions: Table 2, Pyrimidone Core-Morpholine Substituted; after 60 minutes at 10 micromolar

| % CAF (60 min) [%] | SMILES |
| --- | --- |
| 0 | C=CC(=O)N1C[C@H](C)N(c2nc(=O)n3c4c(c(-c5c(O)cccc5F)c(Cl)cc24)OC[C@H]3CO)C[C@H]1C [Example 32, (3R,10R)-7-((2S,5R)-4-acryloyl-2,5-dimethylpiperazin-1-yl)-9-chloro-10-(2-fluoro-6-hydroxyphenyl)-3-(hydroxymethyl)-2H-[1,4]oxazino[2,3,4-ij]quinazolin-5(3H)-one] |
| 0 | C=CC(=O)N1CCN(c2nc(=O)n3c4c(c(-c5c(O)cccc5F)c(Cl)cc24)OC[C@@H]3CO)[C@@H](C)C1 (single isomer, unassigned) [Example 24] |

Same assay, conditions: Table 3, Pyridone Core-Morpholine Unsubstituted; after 60 minutes at 10 micromolar

| CAF | SMILES |
| --- | --- |
| 2 | C=CC(=O)N1CCN(c2cc(=O)n3c4c(c(-c5ccc(F)cc5F)ccc24)CCC3)CC1 [Example 47, 1-(4-acryloylpiperazin-1-yl)-8-(2,4-difluorophenyl)-6,7-dihydropyrido[3,2,1-ij]quinolin-3(5H)-one] |

Same assay, conditions: Table 6; 10 μM, 1 h

| % CAF @ 10 μM,1 h [%] | SMILES |
| --- | --- |
| 82.4 | C=CC(=O)N1C[C@H](C)N(c2nc(=O)n3c4c(c(-c5ccc(F)cc5F)c(Cl)cc24)OC[C@H]3CC2(O)CCN(C)CC2)C[C@H]1C [Example 293, (3R)-7-((2S,5R)-4-acryloyl-2,5-dimethylpiperazin-1-yl)-9-chloro-10-(2,4-difluorophenyl)-3-((4-hydroxy-1-methylpiperidin-4-yl)methyl)-2H-[1,4]oxazino[2,3,4-ij]quinazolin-5(3H)-one] |
| 92.4 | C=CC(=O)N1C[C@H](C)N(c2nc(=O)n3c4c(c(-c5ccc(F)cc5F)c(Cl)cc24)OC[C@H]3CCCN(C)CC(F)(F)F)C[C@H]1C [Example 284, (3R)-7-((2S,5R)-4-acryloyl-2,5-dimethylpiperazin-1-yl)-9-chloro-10-(2,4-difluorophenyl)-3-(3-(methyl(2,2,2-trifluoroethyl)amino)propyl)-2,3-dihydro-5H-[1,4]oxazino[2,3,4-ij]quinazolin-5-one] |
| 75.9 | C=CC(=O)N1CCN(c2nc(=O)n3c4c(c(-c5c(O)cccc5F)c(Cl)cc24)OC[C@H]3CN2CCC(F)(F)C2)[C@@H](C)C1 (atropisomer, axis not shown) [Example 230, (3R,10S)-7-((S)-4-acryloyl-2-methylpiperazin-1-yl)-9-chloro-3-((3,3-difluoropyrrolidin-1-yl)methyl)-10-(2-fluoro-6-hydroxyphenyl)-2,3-dihydro-5H-[1,4]oxazino[2,3,4-ij]quinazolin-5-one] |
| 0 | C=CC(=O)N1C[C@H](C)N(c2nc(=O)n3c4c(c(-c5c(C)ccc6[nH]ncc56)c(Cl)cc24)OC[C@H]3Cn2cccn2)C[C@H]1C (atropisomer, axis not shown) [Example 319, (3R,10S)-3-((1H-pyrazol-1-yl)methyl)-7-((2S,5R)-4-acryloyl-2,5-dimethylpiperazin-1-yl)-9-chloro-10-(5-methyl-1H-indazol-4-yl)-2,3-dihydro-5H-[1,4]oxazino[2,3,4-ij]quinazolin-5-one] |
| 91.7 | C=CC(=O)N1C[C@H](C)N(c2nc(=O)n3c4c(c(-c5ccc(F)cc5F)c(Cl)cc24)OC[C@H]3CCCN2CC[C@H](F)C2)C[C@H]1C [Example 330, (3R)-7-((2S,5R)-4-acryloyl-2,5-dimethylpiperazin-1-yl)-9-chloro-10-(2,4-difluorophenyl)-3-(3-((S)-3-fluoropyrrolidin-1-yl)propyl)-2,3-dihydro-5H-[1,4]oxazino[2,3,4-ij]quinazolin-5-one] |
| 59.8 | C=CC(=O)N1C[C@H](C)N(c2nc(=O)n3c4c(c(-c5cc(Cl)ccc5F)c(Cl)cc24)OC[C@H]3CN2CCOCC2)C[C@H]1C [Example 212, (3R)-7-((2S,5R)-4-acryloyl-2,5-dimethylpiperazin-1-yl)-9-chloro-10-(5-chloro-2-fluorophenyl)-3-(morpholinomethyl)-2H-[1,4]oxazino[2,3,4-ij]quinazolin-5(3H)-one] |
| 84.2 | C=CC(=O)N1C[C@H](C)N(c2nc(=O)n3c4c(c(-c5ccc(F)cc5F)c(Cl)cc24)OC[C@H]3CC2CCN(C3COC3)CC2)C[C@H]1C [Example 316, (3R)-7-((2S,5R)-4-acryloyl-2,5-dimethylpiperazin-1-yl)-9-chloro-10-(2,4-difluorophenyl)-3-((1-(oxetan-3-yl)piperidin-4-yl)methyl)-2H-[1,4]oxazino[2,3,4-ij]quinazolin-5(3H)-one] |
| 95.9 | C=CC(=O)N1C[C@H](C)N(c2nc(=O)n3c4c(c(-c5ccc(F)cc5F)c(Cl)cc24)OC[C@H]3CC2CCN(C)CC2)C[C@H]1C [Example 288, (3R)-7-((2S,5R)-4-acryloyl-2,5-dimethylpiperazin-1-yl)-9-chloro-10-(2,4-difluorophenyl)-3-((1-methylpiperidin-4-yl)methyl)-2H-[1,4]oxazino[2,3,4-ij]quinazolin-5(3H)-one] |
| 0 | C=CC(=O)N1C[C@H](C)N(c2nc(=O)n3c4c(c(-c5c(C)ccc6[nH]ncc56)c(Cl)cc24)OC[C@H]3CCCN2C[C@@H]3C[C@H]2CO3)C[C@H]1C (atropisomer, axis not shown) [Example 325, (3R,10S)-3-(3-((1S,4S)-2-oxa-5-azabicyclo[2.2.1]heptan-5-yl)propyl)-7-((2S,5R)-4-acryloyl-2,5-dimethylpiperazin-1-yl)-9-chloro-10-(5-methyl-1H-indazol-4-yl)-2,3-dihydro-5H-[1,4]oxazino[2,3,4-ij]quinazolin-5-one] |
| 97.5 | C=CC(=O)N1C[C@H](C)N(c2nc(=O)n3c4c(c(-c5c(O)cccc5F)c(Cl)cc24)OC[C@@H]3CCCN2CCOCC2)C[C@H]1C (atropisomer, axis not shown) [Example 265, (3S,10S)-7-((2S,5R)-4-acryloyl-2,5-dimethylpiperazin-1-yl)-9-chloro-10-(2-fluoro-6-hydroxyphenyl)-3-(3-morpholinopropyl)-2,3-dihydro-5H-[1,4]oxazino[2,3,4-ij]quinazolin-5-one] |
| 0 | C=CC(=O)N1C[C@H](C)N(c2nc(=O)n3c4c(c(-c5c(F)ccc6[nH]cnc56)ccc24)OCC3)C[C@H]1C [Example 201, 7-((2S,5R)-4-acryloyl-2,5-dimethylpiperazin-1-yl)-10-(5-fluoro-1H-benzo[d]imidazol-4-yl)-2,3-dihydro-5H-[1,4]oxazino[2,3,4-ij]quinazolin-5-one] |
| 95.6 | C=CC(=O)N1C[C@H](C)N(c2nc(=O)n3c4c(c(-c5ccc(F)cc5F)c(Cl)cc24)OC[C@H]3CCCN2CCOCC2)C[C@H]1C [Example 218, (3R)-7-((2S,5R)-4-acryloyl-2,5-dimethylpiperazin-1-yl)-9-chloro-10-(2,4-difluorophenyl)-3-(3-morpholinopropyl)-2,3-dihydro-5H-[1,4]oxazino[2,3,4-ij]quinazolin-5-one] |

| SMILES | % CAF @ 10 μM,1 h [%] |
| --- | --- |
| C=CC(=O)N1C2CC(=O)CC1CN(c1nc(=O)n3c4c(c(-c5ccc(F)cc5F)c(C(F)(F)F)cc14)OCC3)C2 [Example 337, 7-(9-acryloyl-7-oxo-3,9-diazabicyclo[3.3.1]nonan-3-yl)-10-(2,4-difluorophenyl)-9-(trifluoromethyl)-2,3-dihydro-5H-[1,4]oxazino[2,3,4-ij]quinazolin-5-one] | 95.9 |
| C=CC(=O)N1C[C@H](C)N(c2nc(=O)n3c4c(c(-c5ccc(F)cc5F)c(Cl)cc24)OC[C@H]3CN2C[C@H]3CC[C@@H](C2)N3C)C[C@H]1C [Example 285, (3R)-7-((2S,5R)-4-acryloyl-2,5-dimethylpiperazin-1-yl)-9-chloro-10-(2,4-difluorophenyl)-3-(((1R,5S)-8-methyl-3,8-diazabicyclo[3.2.1]octan-3-yl)methyl)-2H-[1,4]oxazino[2,3,4-ij]quinazolin-5(3H)-one] | 86.2 |
| C=CC(=O)N1C[C@H](C)N(c2nc(=O)n3c4c(c(-c5ccc(F)cc5F)c(Cl)cc24)OC[C@H]3CN2C[C@H]3CC[C@@H](C2)N3C2COC2)C[C@H]1C [Example 291, (3R)-7-((2S,5R)-4-acryloyl-2,5-dimethylpiperazin-1-yl)-9-chloro-10-(2,4-difluorophenyl)-3-(((1R,5S)-8-(oxetan-3-yl)-3,8-diazabicyclo[3.2.1]octan-3-yl)methyl)-2H-[1,4]oxazino[2,3,4-ij]quinazolin-5(3H)-one] | 88.8 |
| C=CC(=O)N1C[C@H](C)N(c2nc(=O)n3c4c(c(-c5c(C)ccc6[nH]ncc56)c(Cl)cc24)OC[C@@H]3CCCN2C3CCC2COC3)C[C@H]1C [Example 281, (3S,10S)-3-(3-(3-oxa-8-azabicyclo[3.2.1]octan-8-yl)propyl)-7-((2S,5R)-4-acryloyl-2,5-dimethylpiperazin-1-yl)-9-chloro-10-(5-methyl-1H-indazol-4-yl)-2,3-dihydro-5H-[1,4]oxazino[2,3,4-ij]quinazolin-5-one] | 0 |
| C=CC(=O)N1C[C@H](C)N(c2nc(=O)n3c4c(c(-c5ccc(F)cc5F)c(Cl)cc24)O[C@@H](CCCN2C4CCC2COC4)C3)C[C@H]1C [Example 262, (2S)-2-(3-(3-oxa-8-azabicyclo[3.2.1]octan-8-yl)propyl)-7-((2S,5R)-4-acryloyl-2,5-dimethylpiperazin-1-yl)-9-chloro-10-(2,4-difluorophenyl)-2,3-dihydro-5H-[1,4]oxazino[2,3,4-ij]quinazolin-5-one] | 31.6 |
